Experiments:
[1] = Example 5: titration of sand/amine/brine mixture with 10% acetic acid, amine in solution by GC; conditions: core sand in brine #2, titrated with 10 wt % acetic acid
Experimental: (§1) Concentration of amines, in media and water, were analyzed by gas chromatography (GC). An Agilent Model 5890 (Agilent, Wilmington, Del.), GC equipped with a […] and a split/splitless injector, a DB-FFAP column (30 meter length×0.32 millimeter (mm) […]×0.25 micrometer particle size). […] The system was calibrated using a sample of N,N-Dimethyl-1-Dodecaneamine (Aldrich). Helium was used as the carrier gas. A temperature gradient of 50 degrees Celsius (° C.) to 250° C. at 30° C. increase per minute (min) was used.
The same procedure outlined in Example 4 was repeated here to produce the sand/amine mixture. 30.85 grams (gr) of the sand/amine mixture was added to 100 ml of brine #2 (Table 3) to create the sand/amine/brine mixture.

[2] = Example 4: titration of sand/amine/brine mixture with 10% nitric acid, amine in solution by GC; conditions: core sand in brine #2, titrated with 10 wt % nitric acid
Experimental: as §1
The procedure outlined in Example 2 was used to produce the sand/amine mixture except that 519 mg of the amine, 10 gr of Pentane. and 60.062 gr of sand from the Oa and Ob layers were used. 29.065 gr of this sand/amine mixture was added to 100 ml of brine #2 (Table 3) to create the sand/amine/brine mixture. […] The concentration of the amine in the water should have been about […] if all the amine was dissolved in brine #2. […] 0.1 ml of 10 weight percent (wt %) nitric acid in water was added to this solution, and the pH and the amine concentration were measured again.

[3] = Example 2: titration of amine coated core sand in brine #2 with 1N HCl, amine in solution by GC; type: physicochemical; conditions: core sand in brine #2, titrated with 1N HCl
Experimental: Helium was used as the carrier gas.
38 milligrams (mg) of N N-Dimethyl-1-Dodecanamine (hereafter referred to as “the amine”) was added to 10.210 gr of Pentane. This solution was added to 10.1845 gr of specific sand layers (Oa and Ob) obtained from the Schrader Bluff formation of the Milne Point Unit of the Alaskan North slope. The oil content of the sand was first removed using a mixture of methanol and toluene (50/50, volume/volume) as solvent washes. The solvent mixture was subsequently evaporated off the core sand to produce clean, dry, flowable core sand. This sand was mixed with the amine and pentane solution to produce a slurry. This slurry was thoroughly mixed and the pentane was evaporated off leaving the amine on the sand (hereafter referred to as sand/amine mixture). 100 ml of brine #2 (Table 3) was added to the sand/amine mixture to create the sand/amine/brine mixture. […] The fact that the amine was not detected underlined its strong binding to the sand particles. […] The data underlines the remarkable efficiency of an acid at ionizing and removing the amine from the sand.

CCCCCCCCCCCCN(C)C [N-N-dimethyl-1-dodeanamine, N N-Dimethyl-1-Dodecanamine]
pH below which complete ionization and solubilization in the water of the amine was observed [1]: ~6.7 pH
pH below which complete ionization and solubilization in the water of the amine was observed [2]: ~6.7 pH
pH below which complete ionization and solubilization of the amine in the water was observed [3]: ~6.0 pH

— patent US8408292B2, “Method for pre-treatment of subterranean sites adjacent to water injection wells” (E.I. du Pont de Nemours and Company, priority 2010, dated 2013)
